Publication PMC8364350 (Nature ecology & evolution, 2020)

T1: DrCSAD (Danio rerio, UniProt A0A8M1N2X8)
T1 sequence (A0A8M1N2X8 1-500): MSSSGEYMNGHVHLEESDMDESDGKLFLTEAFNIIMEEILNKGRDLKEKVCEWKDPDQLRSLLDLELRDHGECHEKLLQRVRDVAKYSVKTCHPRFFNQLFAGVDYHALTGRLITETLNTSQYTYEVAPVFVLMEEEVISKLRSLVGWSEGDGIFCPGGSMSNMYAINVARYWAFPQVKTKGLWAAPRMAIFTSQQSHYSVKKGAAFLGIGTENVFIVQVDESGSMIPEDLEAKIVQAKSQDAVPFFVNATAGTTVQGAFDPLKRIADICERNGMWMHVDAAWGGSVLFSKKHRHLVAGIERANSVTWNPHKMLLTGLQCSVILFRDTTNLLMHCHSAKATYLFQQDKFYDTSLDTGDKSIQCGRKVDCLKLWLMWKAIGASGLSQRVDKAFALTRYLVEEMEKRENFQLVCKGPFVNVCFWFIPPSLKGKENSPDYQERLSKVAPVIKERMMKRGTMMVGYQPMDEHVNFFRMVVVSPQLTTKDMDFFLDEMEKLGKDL

T2: HsCSAD (Homo sapiens, UniProt Q9Y600)
T2 sequence (Q9Y600 1-493): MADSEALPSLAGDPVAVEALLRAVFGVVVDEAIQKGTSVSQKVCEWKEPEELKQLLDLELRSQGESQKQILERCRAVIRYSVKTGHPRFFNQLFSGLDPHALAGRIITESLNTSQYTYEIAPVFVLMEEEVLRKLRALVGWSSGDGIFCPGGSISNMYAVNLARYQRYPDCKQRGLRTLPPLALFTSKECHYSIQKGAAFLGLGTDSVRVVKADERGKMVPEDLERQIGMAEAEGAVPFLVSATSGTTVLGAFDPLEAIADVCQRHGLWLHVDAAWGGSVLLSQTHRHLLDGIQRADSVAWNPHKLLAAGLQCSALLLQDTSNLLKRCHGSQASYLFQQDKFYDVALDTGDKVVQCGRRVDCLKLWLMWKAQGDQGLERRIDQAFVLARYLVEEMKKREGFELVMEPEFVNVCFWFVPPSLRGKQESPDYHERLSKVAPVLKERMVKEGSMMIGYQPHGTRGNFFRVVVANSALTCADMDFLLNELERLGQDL


Key:
[1] = molecular target: T1, DrCSAD; experiment: 1H NMR product quantification, specific activity; assay type: biochemical; details: 5 min reaction stopped with 1 M HCl, pH 7.0, 25 C; preferred substrate
[2] = molecular target: T2, HsCSAD; experiment: 1H NMR product quantification, specific activity; assay type: biochemical; details: 5 min reaction stopped with 1 M HCl, pH 7.0, 25 C; preferred substrate
[3] = substrate: N[C@@H](CS(=O)(=O)O)C(=O)O; experiment: time-resolved 1H NMR, integrated Michaelis-Menten fit of progress curve; assay type: biochemical, Gallus gallus; details: 50 mM NaH2PO4 pH 7.0, 25 C, H2O:D2O 9:1, example time course

Row | Molecule | specific activity [1] | specific activity [2] | Km [3]
1 | N[C@@H](CS(=O)O)C(=O)O [CSA, cysteine sulfinic acid] | observed the same preference for CSA in a CSAD ortholog of a basal vertebrate | We confirmed the opposite preference for the CSA substrate in human CSAD | –
2 | GgCAD (Gallus gallus) (protein) MAEQSDLERPAVDGAAGEEFLRAAFQVLLEEAVRKGTDVAQKVCEWKEPHELRELLDLELRSHGEPAGRLLERCRDIIRYSVKTCHPRFFNQLFSGLDHHALAGRLLTETLNTSQYTYEIAPVFVLMEEVVLAKLRELVGWNSGDGIFCPGGSISNMYAMNVARFQRFPESRQQGSRALPRLVLFASEECHYSIQKGAAFLGIGTDNVVLVRADERGKMIPEELEKEIERVKSEGAVPFFVSATSGTTVLGAFDPLGPVADVCQRHGLWLHVDAAWGGSALLSRKHRQLLAGIERADSVAWNPHKMLTVGLQCSAFLLRDDSGLLQRCHGAGAAYLFQPDKFYDVMFDTGDKTVQCGRRVDCLKLWLLWKAVGSEGLEQRVDRAFACTSYLAAEMKRRDGFQLVLEPEFINLCFWFVPPSLRGQQGCTDFGPRLGKVAPAIKERMMKEGSMMVGYQPHGTRPNFFRQIVTSPAVTRADLDFFLDEIERLGCDL | – | – | 6.95 ± 3.23 mM
